Test results: publication PMC8470823, “8-Amino-6-Methoxyquinoline—Tetrazole Hybrids: Impact of Linkers on Antiplasmodial Activity” (Molecules, 2021)
Like-named read-outs stand apart in the source and are kept apart here.

What was measured:
[1] = In vitro cytotoxicity with L-6 cells (Alamar Blue); format: cell-based, rat
Procedure: (§1) Serial drug dilutions of 11 3-fold dilution steps covering a range from 100 to 0.002 μg/mL were prepared. After 70 h of incubation, the plates were inspected under an inverted microscope to assure the growth of the controls and sterile conditions. Then, 0.01 mL of Alamar Blue was added to each well and the plates incubated for another 2 h. The plates were read with a Spectramax Gemini XS microplate fluorometer (Molecular Devices Cooperation, Sunnyvale, CA, USA) using an excitation wavelength of 536 nm and an emission wavelength of 588 nm. The IC50 values were calculated by linear regression from the sigmoidal dose inhibition curves using SoftmaxPro software (Molecular Devices Cooperation, Sunnyvale, CA, USA). Podophyllotoxin (Sigma P4405) was used as control.

P. falciparum NF54 = assay: In vitro microplate assay against P. falciparum (3H-hypoxanthine incorporation); format: cell-based, Plasmodium falciparum; conditions: for S.I. = IC50 (Cyt.)/IC50 (P.f. NF54): selectivity index: L-6 cells IC50 / P.f. NF54 IC50
Procedure: Chloroquine (Sigma C6628) was used as standard. Compounds were dissolved in DMSO at 10 mg/mL and added to parasite cultures incubated in RPMI 1640 medium without hypoxanthine, supplemented with HEPES (5.94 g/L), NaHCO3 (2.1 g/L), neomycin (100 U/mL), Albumax (5 g/L) and washed human red cells A^+ at 2.5% hematocrit (0.3% parasitemia). Serial drug dilutions of 11 3-fold dilution steps covering a range from 100 to 0.002 μg/mL were prepared. […] After 48 h, 0.05 mL of ^3H-hypoxanthine (=0.5 μCi) was added to each well of the plate. The plates were incubated for a further 24 h under the same conditions. The plates were then harvested with a Betaplate cell harvester (Wallac, Zurich, Switzerland). The red blood cells were transferred onto a glass fiber filter and washed with distilled water. The dried filters were inserted into a plastic foil with 10 mL of scintillation fluid and counted in a Betaplate liquid scintillation counter (Wallac, Zurich, Switzerland). IC50 values were calculated from sigmoidal inhibition curves by linear regression using Microsoft Excel. Artemisinin and chloroquine were used as control.

L-6 cells = assay: In vitro cytotoxicity with L-6 cells (Alamar Blue); format: cell-based, rat
Procedure: as §1

[2] = rat, Cytotoxicity L-6 Cells IC50
[3] = Plasmodium falciparum, chloroquine-sensitive strain NF54, erythrocytic stages, average of four determinations, read-out: P.f. NF54 IC50
[4] = rat skeletal myoblasts, average of four determinations, read-out: Cytotoxicity L-6 Cells IC50

Compound	IC50 at 72 h [1, 2] [µM]	IC50 (P. falciparum NF54; [3]) [µM]	S.I. = IC50 (Cyt.)/IC50 (P.f. NF54) (P. falciparum NF54)	also measured
CCC(Nc1cc(OC)cc2cccnc12)c1nnnn1C(C)(C)C (stereo not drawn) [Compound 13, 6-Methoxy-N-(1-(1-tert-butyl-1H-tetrazol-5-yl)propyl)quinolin-8-amine]	91.1	23.6	3.86	
CCN(CC)CCCC(C)Nc1ccnc2cc(Cl)ccc12 (stereo not drawn) [CQ, chloroquine, reference compound]			23,313	IC50 at 72 h [1, 4]: 90.9 µM; IC50 (P. falciparum NF54; Plasmodium falciparum, NF54, read-out: P.f. NF54 IC50): 0.0039 µM
COc1cc(NC(c2ccc(Br)cc2)c2nnnn2C(C)(C)C)c2ncccc2c1 (stereo not drawn) [Compound 17, N-((4-Bromophenyl)(1-tert-butyl-1H-tetrazol-5-yl)methyl)-6-methoxyquinolin-8-amine]	96.9	0.464	208.8	
CCCCCCCC(Nc1cc(OC)cc2cccnc12)c1nnnn1C(C)(C)C (stereo not drawn) [Compound 22, 6-Methoxy-N-(1-(1-tert-butyl-1H-tetrazol-5-yl)octyl)quinolin-8-amine]	54.7	0.324	168.9	
COc1cc([C@@H]2c3cc4c(cc3[C@H](O)[C@H]3COC(=O)[C@H]23)OCO4)cc(OC)c1OC [POD, podophyllotoxin, reference compound]				IC50 (L-6 cells; [4]): 0.012 µM
COc1cc(NCCNC(c2ccc(Cl)cc2)c2nnnn2C(C)(C)C)c2ncccc2c1 (stereo not drawn) [Compound 10, N^1-((4-Chlorophenyl)(tert-butyl-1H-tetrazol-5-yl)methyl)-N^2-(6-methoxyquinolin-8-yl)ethan-1,2-diamine]	92.3	5.34	17.29	
COc1cc(NC(c2ccccc2)c2nnnn2C(C)(C)C)c2ncccc2c1 (stereo not drawn) [Compound 14, 6-Methoxy-N-((phenyl)(1-tert-butyl-1H-tetrazol-5-yl)methyl)quinolin-8-amine]	49	5.12	9.56	
COc1cc(NCCNC(c2ccc(F)cc2)c2nnnn2C(C)(C)C)c2ncccc2c1 (stereo not drawn) [Compound 9, N^1-((4-Fluorophenyl)(tert-butyl-1H-tetrazol-5-yl)methyl)-N^2-(6-methoxyquinolin-8-yl)ethan-1,2-diamine]	55.4	7.05	7.86	
N^1-(6-Methoxyquinolin-8-yl)-N^2-((tert-butyl-1H-tetrazol-5-yl)(2-(trifluoromethyl)phenyl) methyl)-ethan-1,2-diamine [Compound 12]			7.64	IC50 (L-6 cells): 22.3 µM; IC50 (P. falciparum NF54; chloroquine-sensitive strain NF54, erythrocytic stages, average of four determinations, read-out: P.f. NF54 IC50): 2.92 µM
COc1cc(NC(c2ccc(F)cc2)c2nnnn2C(C)(C)C)c2ncccc2c1 (stereo not drawn) [Compound 15, N-((4-Fluorophenyl)(1-tert-butyl-1H-tetrazol-5-yl)methyl)-6-methoxyquinolin-8-amine]	119 to 124	2.68		IC50 (L-6 cells; rat, 72 h): 124 µM
CCC(NCCNc1cc(OC)cc2cccnc12)c1nnnn1C(C)(C)C (stereo not drawn) [Compound 7, N^1-(6-Methoxyquinolin-8-yl)-N^2-(1-(tert-butyl-1H-tetrazol-5-yl)propyl)ethan-1,2-diamine]	144	16		
COc1cc(NC(c2ccc(C(C)C)cc2)c2nnnn2C(C)(C)C)c2ncccc2c1 (stereo not drawn) [Compound 20, 6-Methoxy-N-((4-(propan-2-yl)phenyl)(1-tert-butyl-1H-tetrazol-5-yl)methyl)quinolin-8-amine]	119 to 124	2		IC50 (L-6 cells; rat, 72 h): 119 µM
COc1cc(NC(c2ccc(Cl)cc2)c2nnnn2C(C)(C)C)c2ncccc2c1 (stereo not drawn) [Compound 16, N-((4-Chlorophenyl)(1-tert-butyl-1H-tetrazol-5-yl)methyl)-6-methoxyquinolin-8-amine]	236	0.743	318.3	
COc1cc(NCCNC(c2ccccc2)c2nnnn2C(C)(C)C)c2ncccc2c1 (stereo not drawn) [Compound 8, N^1-(6-Methoxyquinolin-8-yl)-N^2-((phenyl)(tert-butyl-1H-tetrazol-5-yl)methyl)ethan-1,2-diamine]	58	6.09	9.52	
COc1cc(NCCNC(c2ccc(Br)cc2)c2nnnn2C(C)(C)C)c2ncccc2c1 (stereo not drawn) [Compound 11, N^1-((4-Bromophenyl)(tert-butyl-1H-tetrazol-5-yl)methyl)-N^2-(6-methoxyquinolin-8-yl)ethan-1,2-diamine]	34.1	2.51	13.57	
COc1cc(NC(c2ccc(C(F)(F)F)cc2)c2nnnn2C(C)(C)C)c2ncccc2c1 (stereo not drawn) [Compound 18, 6-Methoxy-N-((1-tert-butyl-1H-tetrazol-5-yl)(4-(trifluoromethyl)phenyl)methyl)quinolin-8-amine]	176	0.644	273.3	
COc1cc(NC(c2ccc(C)cc2)c2nnnn2C(C)(C)C)c2ncccc2c1 (stereo not drawn) [Compound 19, 6-Methoxy-N-((4-methylphenyl)(1-tert-butyl-1H-tetrazol-5-yl)methyl)quinolin-8-amine]	248	1.04	238.9	
COc1cc(NC(c2cccc3ccccc23)c2nnnn2C(C)(C)C)c2ncccc2c1 (stereo not drawn) [Compound 21, 6-Methoxy-N-((naphthalen-1-yl)(1-tert-butyl-1H-tetrazol-5-yl)methyl)quinolin-8-amine]	173	1.26	137.6	
